Assay results: PMC3006138, “Fexinidazole – A New Oral Nitroimidazole Drug Candidate Entering Clinical Development for the Treatment of Sleeping Sickness” (PLoS Neglected Tropical Diseases, 2010)
In brackets after ≈: the same amount, converted by molar mass.

Assays:
[1] = Preliminary embryo-foetal and early postnatal development study; format: in vivo, rat; conditions: pregnant rats
Experimental: In the rat study, fexinidazole was administered orally by gavage once a day from day 6 to day 17 of gestation or from day 6 of gestation to day 7 of lactation to 10 mated rat Crl:CD (SD)IGS BR rats[…]/group at doses of 50, 200, or 800 mg/kg/day. A control group received the vehicle alone (5% Tween 80/0.5% methocel).

African trypanosomes = test: In vitro activity against African trypanosomes (summary); format: cell-based; conditions: Trypanosoma brucei, laboratory strains and recent clinical isolates
Experimental: (§1) Parasites were cultured with or without the test article at a concentration of 3×10^4/mL in Minimal Essential Medium, according to Baltz et al., with the following modifications: 0.2 mM 2-mercaptoethanol, 1 mM Na-pyruvate, 0.5 mM hypoxanthine and 15% heat inactivated horse serum at 37°C in 5% CO2 in 96-well microtitre plates for 72 h. 10 µL of Alamar Blue was added for the final 3 h to determine viability. The assay was assessed by reading the fluorescence in each well at an excitation wavelength of 536 nm and at an emission wavelength of 588 nm. The IC50 values were calculated from the sigmoidal inhibition curves. For cytotoxicity, 4×10^4/mL L-6 rat skeletal myoblast cells were used, and incubations and assessments carried out as above.

[2] = Cardiovascular safety by telemetry; conditions: single oral dose
Experimental: Cardiovascular safety parameters were assessed in beagle dogs. Four adult (>1 year old) beagle dogs were given oral doses of fexinidazole at 100, 300 and 1000 mg/kg in an escalating dose design.
6.3. Treatment and Experimental Design
Experimental Day Treatmenta Dose (mg/kg) Volume Animal numbers (males) […]
a) Animals were treated following an escalating dose design with an adequate washout (at least 5 half lives of the longer lasting metabolite) between doses
Doses of 100, 300 and 1000 mg/kg of fexinidazole were selected based on the results of a […]
The oral route is that intende d for clinical administration.
6.3.1. Clinical Observation […]
dosing. Body weights are not reported here but they are archived with the study file.
6.3.2. Telemetry recordings
On the day of dosing, telemetry signals from each animal were collected continuously […]
The following parameters were calculated:
− Systolic blood pressure (SBP, mmHg)
− Diastolic blood pressure (DBP, mmHg)
− Average blood pressure (ABP, mmHg)
− Heart rate (HR, bpm, from the blood pressure signal)
− ECG intervals (RR, PR, QRS and QT, ms)
− Body temperature (BT, °C)
All the above-mentioned parameters were extracted automatically by the Notocord HEM acquisition software (Notocord, Croissy-sur-Seine, France) as the average value of 10-second recordings. […]

[3] = tested on: T. b. gambiense clinical isolates; test: In vitro trypanocidal assay, clinical isolates; format: cell-based; conditions: Trypanosoma brucei, six recent clinical isolates, data not shown
Experimental: as §1

For `CSc1ccc(OCc2ncc([N+](=O)[O-])n2C)cc1` [Fexinidazole, 1-methyl-2-((p-(methylthio)phenoxy)methyl)-5-nitroimidazole], the “effects on embryo-foetal and early postnatal development” value [1] was “no adverse effects on embryos/foetuses, parturition, and neonates”, the IC50 (African trypanosomes) was 0.1 to 0.8 µg/mL (≈ 0.358 to 2.86 µM) and the “NOEL on body temperature” value [2] was 100 mg/kg. The “NOEL on cardiovascular parameters and ECG intervals” value [2] was 1000 mg/kg and the IC50 [3] was 0.3 to 0.93 µg/mL (≈ 1.07 to 3.33 µM).
